The source of these data is the OligoGym collection.

The target of this series is IRF5. The conditions noted are these: ASO.

Several values for one entry are separate records, joined by “and”; a condition that tells them apart may be missing. Equal values may be shown once. After the bases stand the sugars from the 5' end (letter, count) and the backbone: PS all phosphorothioate, else s phosphorothioate and o phosphodiester by linkage. Methylation of C is not given here. e = 2'-O-(2-methoxyethyl) (MOE); k = constrained ethyl (cEt); d = 2'-deoxy (DNA)

In turn, TTCTGCAGGGAGTCAG (sugars k3 d10 k3, PS) yielded a target mRNA inhibition (KARPAS-229, 4 µM) of 0%.
Still for that read-out and setting: as for “AGGTTCTTGGACTCTC (sugars k2 d9 e3 k2, PS)”, the figure is 0%; as for “GGTGTATTTCCCTGTC (sugars kdddddddddkekeke, PS)”, 0%.
Same read-out and setting: as for CACTTGATTCCAATTT (sugars k3 d10 k3, PS), the figure is 36%.
On the same count and under the same terms, as for ATTTTGTGACTGTATT (sugars k3 d10 k3, PS), the figure is 4%.
As for “AGGTTCTTGGACTCTC (sugars kddddddddddkekek, PS)”, under “KARPAS-229, 4 µM”, the target mRNA inhibition was 34%.
The same measure, in the same setting: as for “CAGGTTCTTGGACTCT (sugars kkkddddddddkekek, PS)”, the figure is 0%.
On the same count and under the same terms, as for “CTGACACAGGCGGATG (sugars kdddddddddkekeke, PS)”, the figure is 0%; as for TGAGTCATGGGCTGAG (sugars k3 d10 k3, PS), 0%.
As for “AGGTTCTTGGACTCTC (sugars kkdddddddddkekek, PS)”, where the note is “KARPAS-229, 4 µM”, the target mRNA inhibition is 38%.
As to “ACCACTGTGTACCCCA (sugars kkddddddddddkeke, PS)”, the target mRNA inhibition by setting is: (KARPAS-229, 0.44444 µM) 26%; (KARPAS-229, 1.33333 µM) 38%; (KARPAS-229, 4 µM) 66% and 56%; (KARPAS-229, 12 µM) 70%.
In turn, TTTGCTCTAAACCATT (sugars k3 d10 k3, PS) came in with a target mRNA inhibition (KARPAS-229, 4 µM) of 2%.
With “CAATTTTGCATTCCAT (sugars kkddddddddkekekk, PS)”, the target mRNA inhibition (KARPAS-229, 4 µM) is 32%.
Still for that read-out and setting: as for “AGGAGTGAGACGAGCA (sugars kekdddddddddeekk, PS)”, the figure is 22%.
The same measure, in the same setting: as for “TGAGTCATGGGCTGAG (sugars kkddddddddddkeke, PS)”, the figure is 0%; as for “GAGTCATGGGCTGAGG (sugars k2 d8 e4 k2, PS)”, 5%; as for “CTTGGTCTTGACCTCC (sugars k3 d9 k3 e1, PS)”, 6%.
On the same count and under the same terms, as for “AGGAAGTGAGTCTCAA (sugars kkkddddddddkdkdk, PS)”, the figure is 40%; as for AACCATTCTATGCCTT (sugars k3 d10 k3, PS), 33%.
For the sequence “CGGTCTTTGAGGTCTG (sugars kddddddddddkekek, PS)”, the target mRNA inhibition (KARPAS-229, 4 µM) amounted to 68%.
Take “AGCTTGGTCTTGACCT (sugars kkddddddddkekekk, PS)”: the target mRNA inhibition (KARPAS-229, 4 µM) came out at 0%.
Take “GAGTCTCAAACCAGGG (sugars kdddddddddkekeke, PS)”: the target mRNA inhibition (KARPAS-229, 4 µM) was 6%.
Same read-out and setting: as for “GAGTGAGACGAGCAAA (sugars kddddddddddkekek, PS)”, the figure is 18%; as for “TGAGTCATGGGCTGAG (sugars kkkdddddddddkeke, PS)”, 17%.
Take AGGAGTGAGACGAGCA (sugars k3 d10 k3, PS): the target mRNA inhibition is, setting by setting: (KARPAS-229, 0.44444 µM) 12%; (KARPAS-229, 1.33333 µM) 41%; (KARPAS-229, 4 µM) 56% and 58%; (KARPAS-229, 12 µM) 70%.
On to “TGTCTAGTGTCATGGA (sugars kkdddddddddkdkdk, PS)”, for which, for the setting “KARPAS-229, 4 µM”, the target mRNA inhibition is 40%.
Same read-out and setting: as for “GTTATCTCCGTTCCTGG (sugars kkkddddddddkekekd, PS)”, the figure is 0%; as for “GCTTGGTCTTGACCTC (sugars k2 d8 e4 k2, PS)”, 19%; as for “GTGAGTCTCAAACCAG (sugars kkdddddddddkekek, PS)”, 0%.
Same read-out and setting: as for TCTGCAGGGAGTCAGA (sugars k3 d10 k3, PS), the figure is 0%.
Turning to TGAATTTTGTGACTGT (sugars k3 d10 k3, PS), the target mRNA inhibition runs as follows: (KARPAS-229, 0.44444 µM) 32%; (KARPAS-229, 1.33333 µM) 59%; (KARPAS-229, 4 µM) 64% and 70%; (KARPAS-229, 12 µM) 81%.
Take “CTGACACAGGCGGATG (sugars kkddddddddkekekk, PS)”: under “KARPAS-229, 4 µM”, the target mRNA inhibition was determined as 0%.
“GGTTCTTGGACTCTCA (sugars kkdddddddddkekek, PS)” displayed a target mRNA inhibition (KARPAS-229, 4 µM) of 0%.
Same read-out and setting: as for “ATGAGTCATGGGCTGA (sugars kddddddddddkekek, PS)”, the figure is 0%.
Still for that read-out and setting: as for “GTTATCTCCGTTCCTGG (sugars kkkdddddddddkeked, PS)”, the figure is 0%; as for “ACTGACACAGGCGGAT (sugars kkddddddddkekekk, PS)”, 0%; as for “GGTCTGGCCCTTTTGG (sugars kdddddddddkekeke, PS)”, 0%.
The same measure, in the same setting: as for “CATTCCATATACACAC (sugars kkdddddddddkdkdk, PS)”, the figure is 25%.
For the setting “KARPAS-229, 4 µM”, “CCACTGTGTACCCCAT (sugars kkddddddddkekekk, PS)” yielded a target mRNA inhibition of 0%.
Regarding GAGTAATAGGAGTGAG (sugars k3 d10 k3, PS), the target mRNA inhibition (KARPAS-229, 4 µM) was 33%.
Still for that read-out and setting: as for “ATCACCACTGTGTACC (sugars kkdddddddddkekek, PS)”, the figure is 0%; as for “GGAGTGAGACGAGCAA (sugars kkdddddddddkekek, PS)”, 27%; as for “GTTATCTCCGTCCTGG (sugars kkdddddddddkekek, PS)”, 0%.
The same measure, in the same setting: as for “ATGAGTCATGGGCTGA (sugars kkdddddddddkekek, PS)”, the figure is 0%; as for AAACCATTCTATGCCT (sugars k3 d10 k3, PS), 0%; as for “GTGTATTTCCCTGTCT (sugars kkdddddddddkdkdk, PS)”, 0%.
Same read-out and setting: as for “TGAGTCTCAAACCAGG (sugars k3 d9 k3 e1, PS)”, the figure is 0%; as for “TTATTTCTGCTCCAGG (sugars kkdddddddddkekek, PS)”, 9%.
For the setting “KARPAS-229, 4 µM”, “TGCACTGACACAGGCG (sugars kkdddddddddkdkdk, PS)” returned a target mRNA inhibition of 0%.
For the setting “KARPAS-229, 4 µM”, “GTCTTGACCTCCCGCT (sugars kkddddddddkekekk, PS)” displayed a target mRNA inhibition of 26%.
Consider “CATCTCCACATCAGTC (sugars kdddddddddkekeke, PS)”, for which, under “KARPAS-229, 4 µM”, the target mRNA inhibition was found to be 32%.
Take TGAGTCTCAAACCAGG (sugars k3 d10 k3, PS): the target mRNA inhibition (KARPAS-229, 4 µM) was found to be 16%.
The sequence “ATGAGTCATGGGCTGA (sugars kkddddddddddkeke, PS)” showed a target mRNA inhibition (KARPAS-229, 4 µM) of 0%.
Same read-out and setting: as for GTGAGTCTCAAACCAG (sugars k3 d10 k3, PS), the figure is 9%.
With CCAATTTTGCATTCCA (sugars k3 d10 k3, PS), the target mRNA inhibition reads like this: (KARPAS-229, 0.44444 µM) 51%; (KARPAS-229, 1.33333 µM) 74%; (KARPAS-229, 4 µM) 78% and 83%; (KARPAS-229, 12 µM) 89%.
Regarding “CCCAATGCAACATCCA (sugars kkkddddddddkdkdk, PS)”, for the setting “KARPAS-229, 4 µM”, the target mRNA inhibition worked out at 0%.
Still for that read-out and setting: as for “GCATTCCATATACACA (sugars kkddddddddkekekk, PS)”, the figure is 0%; as for “AAGGGCACAGCGCAGG (sugars kkkddddddddkdkdk, PS)”, 12%; as for “GAGTCATGGGCTGAGG (sugars kddddddddddkekek, PS)”, 0%.
Same read-out and setting: as for “GCTTGGTCTTGACCTC (sugars kkkddddddddkdkdk, PS)”, the figure is 30%; as for “GTGTATTTCCCTGTCT (sugars k3 d9 k3 e1, PS)”, 30%; as for “TTATCTCCGTCCTGGC (sugars k3 d9 k3 e1, PS)”, 0%.
The same measure, in the same setting: as for GGGAGTCAGACCTACC (sugars k3 d10 k3, PS), the figure is 0%; as for “GTGAGTCTCAAACCAG (sugars kdddddddddkekeke, PS)”, 0%; as for “TCCAATTTTGCATTCC (sugars kkkddddddddkdkdk, PS)”, 32%.
Take AAAGGGTGAGTAGGAC (sugars k3 d10 k3, PS): the target mRNA inhibition (KARPAS-229, 4 µM) is 24%.
The same measure, in the same setting: as for “ACTGACACAGGCGGAT (sugars kkdddddddddkdkdk, PS)”, the figure is 6%; as for “GGTTCTTGGACTCTCA (sugars kkkddddddddkdkdk, PS)”, 28%; as for “GGAAGTGAGTCTCAAA (sugars kkdddddddddkekek, PS)”, 25%.
Still for that read-out and setting: as for “GGAGTGAGACGAGCAA (sugars kkkddddddddkekek, PS)”, the figure is 5%; as for “CTTGGTCTTGACCTCC (sugars kkdddddddddkekek, PS)”, 3%; as for “CCAATGCAACATCCAT (sugars k2 d9 e3 k2, PS)”, 0%.
Still for that read-out and setting: as for “AAGGGCACAGCGCAGG (sugars kkddddddddddkeke, PS)”, the figure is 0%; as for “TCCAATTTTGCATTCC (sugars kkkdddddddddkeke, PS)”, 14%; as for “GCTTGGTCTTGACCTC (sugars kkddddddddddkeke, PS)”, 9%.
Consider TTATTTCTGCTCCAGG (sugars k3 d10 k3, PS), for which the target mRNA inhibition was 51% (KARPAS-229, 0.44444 µM); 66% (KARPAS-229, 1.33333 µM); 55% and 77% (KARPAS-229, 4 µM); 84% (KARPAS-229, 12 µM).
As to CCTTCTGCAGGGAGTC (sugars k3 d10 k3, PS), the target mRNA inhibition (KARPAS-229, 4 µM) turned out to be 0%.
Regarding “GGTTCTTGGACTCTCA (sugars k2 d8 e4 k2, PS)”, the target mRNA inhibition by setting is: (KARPAS-229, 0.44444 µM) 25%; (KARPAS-229, 1.33333 µM) 51%; (KARPAS-229, 4 µM) 54% and 64%; (KARPAS-229, 12 µM) 77%.
In turn, “CTTGGTCTTGACCTCC (sugars kkddddddddkekekk, PS)” yielded a target mRNA inhibition (KARPAS-229, 4 µM) of 0%.
Same read-out and setting: as for “AGATGGTGTTATCTCC (sugars kkddddddddkekekk, PS)”, the figure is 0%.
“CTTCTGCAGGGAGTCA (sugars k3 d9 k3 e1, PS)” yielded a target mRNA inhibition (KARPAS-229, 4 µM) of 0%.
The same measure, in the same setting: as for “ATGGTGTTATCTCCGT (sugars kdddddddddkekeke, PS)”, the figure is 0%.
On the same count and under the same terms, as for “CACCACTGTGTACCCC (sugars kdddddddddkekeke, PS)”, the figure is 0%; as for “CCTTCTGCAGGGAGTC (sugars k3 d9 k3 e1, PS)”, 0%.
